# Source: patent US20250163104A1, “MACROCYCLIC IMMUNOMODULATORS” (priority 2021, published 2025)
# Where a SMILES comes first, the peptide text is derived from it. Bridges are numbered along the chain shown (N, C = ends). [ ]: non-standard residue; d: D form. The star is where a group is joined. Phe(4-COOH) = N[C@@H](Cc1ccc(C(=O)O)cc1)C(=O)O; Bip = N[C@@H](Cc1ccc(-c2ccccc2)cc1)C(=O)O; Cha = N[C@@H](CC1CCCCC1)C(=O)O; Phg = N[C@H](C(=O)O)c1ccccc1; Carboxymethyl = O=C(O)C*; Orn = NCCC[C@H](N)C(=O)O; Dab = NCC[C@H](N)C(=O)O; Dap = NC[C@H](N)C(=O)O
# Molecular target: T1, human PD-1 / PD-L1-Ig binding on Jurkat cell line over-expressing human PD-1 (Jurkat-PD-1) (Homo sapiens, UniProt Q15116)
# T1 construct: expressed in transfected cells; host or cells: Jurkat
# Experiment: Jurkat-PD-1 Cell Binding High-Content Screening Assay (CBA)
# Type: cell-based
# Settings: Jurkat-PD-1 cells, PE-labeled PD-L1-Ig 20 nM final; read-out: Jurkat HPD1_PDL1 IC50
# Outline: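 Cell-bound PE-labeled PD-L1-Ig (20 nM final, 1 h) measured by high-content imaging after fixation and Hoechst 33342 counterstain. Compound was applied first for 2 h at 37° C. to Jurkat cells over-expressing human PD-1 in DMEM with 10% FCS.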
# T1 sequence (Q15116 25-288): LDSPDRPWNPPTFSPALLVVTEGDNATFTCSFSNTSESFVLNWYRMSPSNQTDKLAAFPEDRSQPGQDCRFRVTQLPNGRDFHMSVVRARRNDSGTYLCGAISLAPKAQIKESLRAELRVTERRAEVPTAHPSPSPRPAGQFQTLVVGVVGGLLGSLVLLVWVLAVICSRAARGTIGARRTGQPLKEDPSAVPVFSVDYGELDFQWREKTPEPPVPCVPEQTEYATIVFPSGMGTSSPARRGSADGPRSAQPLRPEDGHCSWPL
row,SMILES,IC50 [nM]
1,CCC[C@@H]1NC(=O)[C@H](Cc2c[nH]c3ccccc23)NC(=O)[C@H](CC(=O)O)NC(=O)[C@H](Cc2ccc(OCC(=O)O)cc2)NC(=O)[C@H](CN)NC(=O)CSC[C@@H](C(=O)N[C@@H](C)C(N)=O)NC(=O)[C@H]([C@@H](C)O)NC(=O)[C@H](C(C)C)NC(=O)[C@H](CC2CCCCC2)NC(=O)[C@H](CCN)NC(=O)[C@@H](CC(C)C)NC(=O)[C@H](CCCN)NC(=O)[C@H](C(C)C)NC(=O)[C@H](Cc2ccc(-c3ccccc3)cc2)NC1=O [Compound 1735],13.6
2,CC(C)C[C@H]1NC(=O)[C@H](CCCN)NC(=O)[C@H](C(C)C)NC(=O)[C@H](Cc2ccc(-c3ccccc3)cc2)NC(=O)[C@H](c2ccccc2)NC(=O)[C@H](Cc2c[nH]c3ccccc23)NC(=O)[C@H](CC(=O)O)NC(=O)[C@H](Cc2ccc(OCC(=O)O)cc2)NC(=O)[C@H](CN)NC(=O)CSC[C@@H](C(=O)N[C@@H](C)C(N)=O)NC(=O)[C@H]([C@@H](C)O)NC(=O)[C@H](C(C)C)NC(=O)[C@H](CC2CCCCC2)NC(=O)[C@H](CCN)NC1=O [Compound 1736] ({CH2CO}-[Dap]Y(Carboxymethyl)DW[Phg][Bip]V[Orn][dL][Dab][Cha]VTCA-NH2; thioether N-14),14
3,CC(C)C[C@H]1NC(=O)[C@H](CCCN)NC(=O)[C@H](C(C)C)NC(=O)[C@H](Cc2ccc(-c3ccccc3)cc2)NC(=O)[C@H](C(C)C)NC(=O)[C@H](Cc2c[nH]c3ccccc23)NC(=O)[C@H](CC(=O)O)NC(=O)[C@H](Cc2ccc(OCC(=O)O)cc2)NC(=O)[C@H](CN)NC(=O)CSC[C@@H](C(=O)N[C@@H](C)C(N)=O)NC(=O)[C@H](CN)NC(=O)[C@H](C(C)C)NC(=O)[C@H](CC2CCCCC2)NC(=O)[C@H](CCN)NC1=O [Compound 1738] ({CH2CO}-[Dap]Y(Carboxymethyl)DWV[Bip]V[Orn][dL][Dab][Cha]V[Dap]CA-NH2; thioether N-14),8.3
4,CC(C)C[C@H]1NC(=O)[C@H](CCCN)NC(=O)[C@H](C(C)C)NC(=O)[C@H](Cc2ccc(-c3ccccc3)cc2)NC(=O)[C@H](C(C)C)NC(=O)[C@H](Cc2c[nH]c3ccccc23)NC(=O)[C@H](CC(=O)O)NC(=O)[C@H](Cc2ccc(C(=O)O)cc2)NC(=O)[C@H](Cc2ccc(OCC(=O)O)cc2)NC(=O)CSC[C@@H](C(=O)N[C@@H](C)C(N)=O)NC(=O)[C@H](CN)NC(=O)[C@H](C(C)C)NC(=O)[C@H](CC2CCCCC2)NC(=O)[C@H](CCN)NC1=O [Compound 1739] ({CH2CO}-Y(Carboxymethyl)[Phe(4-COOH)]DWV[Bip]V[Orn][dL][Dab][Cha]V[Dap]CA-NH2; thioether N-14),9.9
5,CC(C)C[C@H]1NC(=O)[C@H](CCCN)NC(=O)[C@H](C(C)C)NC(=O)[C@H](Cc2ccc(-c3ccccc3)cc2)NC(=O)[C@H](C(C)C)NC(=O)[C@H](Cc2c[nH]c3ccccc23)NC(=O)[C@H](CC(=O)O)NC(=O)[C@H](Cc2ccc(OCC(=O)O)cc2)NC(=O)[C@H](Cc2ccc(OCC(=O)O)cc2)NC(=O)CSC[C@@H](C(=O)N[C@@H](C)C(N)=O)NC(=O)[C@H](CN)NC(=O)[C@H](C(C)C)NC(=O)[C@H](CC2CCCCC2)NC(=O)[C@H](CCN)NC1=O [Compound 1740] ({CH2CO}-Y(Carboxymethyl)Y(Carboxymethyl)DWV[Bip]V[Orn][dL][Dab][Cha]V[Dap]CA-NH2; thioether N-14),6.1
6,CC(C)C[C@H]1NC(=O)[C@H](CCCN)NC(=O)[C@H](C(C)C)NC(=O)[C@H](Cc2ccc(-c3ccccc3)cc2)NC(=O)[C@H](C(C)C)NC(=O)[C@H](Cc2c[nH]c3ccccc23)NC(=O)[C@H](CC(=O)O)NC(=O)[C@H](Cc2ccc(OCC(=O)O)cc2)NC(=O)[C@H](CN)NC(=O)CSC[C@@H](C(=O)N[C@@H](C)C(N)=O)NC(=O)[C@H](CCCN)NC(=O)[C@H](C(C)C)NC(=O)[C@H](CC2CCCCC2)NC(=O)[C@H](CCN)NC1=O [Compound 1741] ({CH2CO}-[Dap]Y(Carboxymethyl)DWV[Bip]V[Orn][dL][Dab][Cha]V[Orn]CA-NH2; thioether N-14),8.8
7,CC(C)C[C@H]1NC(=O)[C@H](CCCN)NC(=O)[C@H](C(C)C)NC(=O)[C@H](Cc2ccc(-c3ccccc3)cc2)NC(=O)[C@H](C(C)C)NC(=O)[C@H](Cc2c[nH]c3ccccc23)NC(=O)[C@H](CC(=O)O)NC(=O)[C@H](Cc2ccc(C(=O)O)cc2)NC(=O)[C@H](Cc2ccc(OCC(=O)O)cc2)NC(=O)CSC[C@@H](C(=O)N[C@@H](C)C(N)=O)NC(=O)[C@H](CCCN)NC(=O)[C@H](C(C)C)NC(=O)[C@H](CC2CCCCC2)NC(=O)[C@H](CCN)NC1=O [Compound 1742] ({CH2CO}-Y(Carboxymethyl)[Phe(4-COOH)]DWV[Bip]V[Orn][dL][Dab][Cha]V[Orn]CA-NH2; thioether N-14),6.6
8,CC(C)C[C@H]1NC(=O)[C@H](CCCN)NC(=O)[C@H](C(C)C)NC(=O)[C@H](Cc2ccc(-c3ccccc3)cc2)NC(=O)[C@H](C(C)C)NC(=O)[C@H](Cc2c[nH]c3ccccc23)NC(=O)[C@H](CC(=O)O)NC(=O)[C@H](Cc2ccc(OCC(=O)O)cc2)NC(=O)[C@H](Cc2ccc(OCC(=O)O)cc2)NC(=O)CSC[C@@H](C(=O)N[C@@H](C)C(N)=O)NC(=O)[C@H](CCCN)NC(=O)[C@H](C(C)C)NC(=O)[C@H](CC2CCCCC2)NC(=O)[C@H](CCN)NC1=O [Compound 1743] ({CH2CO}-Y(Carboxymethyl)Y(Carboxymethyl)DWV[Bip]V[Orn][dL][Dab][Cha]V[Orn]CA-NH2; thioether N-14),6
9,CC(C)C[C@H]1NC(=O)[C@H](CCCN)NC(=O)[C@H](C(C)C)NC(=O)[C@H](Cc2ccc(-c3ccccc3)cc2)NC(=O)[C@H](C(C)C)NC(=O)[C@H](Cc2c[nH]c3ccccc23)NC(=O)[C@H](CC(=O)O)NC(=O)[C@H](Cc2ccc(OCC(=O)O)cc2)NC(=O)[C@H](CN)NC(=O)CSC[C@@H](C(=O)N[C@@H](C)C(N)=O)NC(=O)[C@H](CCCCN)NC(=O)[C@H](C(C)C)NC(=O)[C@H](CC2CCCCC2)NC(=O)[C@H](CCN)NC1=O [Compound 1744] ({CH2CO}-[Dap]Y(Carboxymethyl)DWV[Bip]V[Orn][dL][Dab][Cha]VKCA-NH2; thioether N-14),4.7
10,CC(C)C[C@H]1NC(=O)[C@H](CCCN)NC(=O)[C@H](C(C)C)NC(=O)[C@H](Cc2ccc(-c3ccccc3)cc2)NC(=O)[C@H](C(C)C)NC(=O)[C@H](Cc2c[nH]c3ccccc23)NC(=O)[C@H](CC(=O)O)NC(=O)[C@H](Cc2ccc(C(=O)O)cc2)NC(=O)[C@H](Cc2ccc(OCC(=O)O)cc2)NC(=O)CSC[C@@H](C(=O)N[C@@H](C)C(N)=O)NC(=O)[C@H](CCCCN)NC(=O)[C@H](C(C)C)NC(=O)[C@H](CC2CCCCC2)NC(=O)[C@H](CCN)NC1=O [Compound 1745] ({CH2CO}-Y(Carboxymethyl)[Phe(4-COOH)]DWV[Bip]V[Orn][dL][Dab][Cha]VKCA-NH2; thioether N-14),4
11,CC(C)C[C@H]1NC(=O)[C@H](CCCN)NC(=O)[C@H](C(C)C)NC(=O)[C@H](Cc2ccc(-c3ccccc3)cc2)NC(=O)[C@H](C(C)C)NC(=O)[C@H](Cc2c[nH]c3ccccc23)NC(=O)[C@H](CC(=O)O)NC(=O)[C@H](Cc2ccc(OCC(=O)O)cc2)NC(=O)[C@H](Cc2ccc(OCC(=O)O)cc2)NC(=O)CSC[C@@H](C(=O)N[C@@H](C)C(N)=O)NC(=O)[C@H](CCCCN)NC(=O)[C@H](C(C)C)NC(=O)[C@H](CC2CCCCC2)NC(=O)[C@H](CCN)NC1=O [Compound 1746] ({CH2CO}-Y(Carboxymethyl)Y(Carboxymethyl)DWV[Bip]V[Orn][dL][Dab][Cha]VKCA-NH2; thioether N-14),8.8
12,CC(C)C[C@H]1NC(=O)[C@H](CCCN)NC(=O)[C@H](C(C)C)NC(=O)[C@H](Cc2ccc(-c3ccccc3)cc2)NC(=O)[C@H](C(C)C)NC(=O)[C@H](Cc2c[nH]c3ccccc23)NC(=O)[C@H](CC(=O)O)NC(=O)[C@H](Cc2ccc(OCC(=O)O)cc2)NC(=O)[C@H](CN)NC(=O)CSC[C@@H](C(=O)N[C@@H](C)C(N)=O)NC(=O)[C@H](CCCNC(=N)N)NC(=O)[C@H](C(C)C)NC(=O)[C@H](CC2CCCCC2)NC(=O)[C@H](CCN)NC1=O [Compound 1747] ({CH2CO}-[Dap]Y(Carboxymethyl)DWV[Bip]V[Orn][dL][Dab][Cha]VRCA-NH2; thioether N-14),6.4
13,CC(C)C[C@H]1NC(=O)[C@H](CCCN)NC(=O)[C@H](C(C)C)NC(=O)[C@H](Cc2ccc(-c3ccccc3)cc2)NC(=O)[C@H](C(C)C)NC(=O)[C@H](Cc2c[nH]c3ccccc23)NC(=O)[C@H](CC(=O)O)NC(=O)[C@H](Cc2ccc(C(=O)O)cc2)NC(=O)[C@H](Cc2ccc(OCC(=O)O)cc2)NC(=O)CSC[C@@H](C(=O)N[C@@H](C)C(N)=O)NC(=O)[C@H](CCCNC(=N)N)NC(=O)[C@H](C(C)C)NC(=O)[C@H](CC2CCCCC2)NC(=O)[C@H](CCN)NC1=O [Compound 1748] ({CH2CO}-Y(Carboxymethyl)[Phe(4-COOH)]DWV[Bip]V[Orn][dL][Dab][Cha]VRCA-NH2; thioether N-14),7.6
14,CC(C)C[C@H]1NC(=O)[C@H](CCCN)NC(=O)[C@H](C(C)C)NC(=O)[C@H](Cc2ccc(-c3ccccc3)cc2)NC(=O)[C@H](C(C)C)NC(=O)[C@H](Cc2c[nH]c3ccccc23)NC(=O)[C@H](CC(=O)O)NC(=O)[C@H](Cc2ccc(OCC(=O)O)cc2)NC(=O)[C@H](Cc2ccc(OCC(=O)O)cc2)NC(=O)CSC[C@@H](C(=O)N[C@@H](C)C(N)=O)NC(=O)[C@H](CCCNC(=N)N)NC(=O)[C@H](C(C)C)NC(=O)[C@H](CC2CCCCC2)NC(=O)[C@H](CCN)NC1=O [Compound 1749] ({CH2CO}-Y(Carboxymethyl)Y(Carboxymethyl)DWV[Bip]V[Orn][dL][Dab][Cha]VRCA-NH2; thioether N-14),4.2
15,CC(C)C[C@H]1NC(=O)[C@H](CCCN)NC(=O)[C@H](C(C)C)NC(=O)[C@H](Cc2ccc(-c3ccccc3)cc2)NC(=O)[C@H](C(C)C)NC(=O)[C@H](Cc2c[nH]c3ccccc23)NC(=O)[C@H](CC(=O)O)NC(=O)[C@H](Cc2ccc(OCC(=O)O)cc2)NC(=O)[C@H](CN)NC(=O)CSC[C@@H](C(=O)N[C@@H](C)C(N)=O)NC(=O)[C@H](Cc2cnc[nH]2)NC(=O)[C@H](C(C)C)NC(=O)[C@H](CC2CCCCC2)NC(=O)[C@H](CCN)NC1=O [Compound 1750] ({CH2CO}-[Dap]Y(Carboxymethyl)DWV[Bip]V[Orn][dL][Dab][Cha]VHCA-NH2; thioether N-14),11.3
